Our source for the IC50 values is PMC4777574, “Pharmacological Inhibition of Monoacylglycerol O-Acyltransferase 2 Improves Hyperlipidemia, Obesity, and Diabetes by Change in Intestinal Fat Utilization” (PLoS ONE, 2016).

Test [1] deals with T1, Monoacylglycerol O-acyltransferase 2 (MGAT2) (Mus musculus, UniProt Q80W94).
T1 construct: gene Mogat2
Nature of the test: MGAT2 enzyme inhibition IC50 (assay details not given); anorectic effect lost in MGAT2 KO mice. Format: biochemical.

Test [2] addresses T2, Monoacylglycerol O-acyltransferase 2 (MGAT2) (Homo sapiens, UniProt Q3SYC2).
T2 construct: gene MOGAT2
In words: MGAT2 enzyme inhibition IC50 (assay details not given). The format is biochemical.

T1 sequence (Q80W94 whole entry): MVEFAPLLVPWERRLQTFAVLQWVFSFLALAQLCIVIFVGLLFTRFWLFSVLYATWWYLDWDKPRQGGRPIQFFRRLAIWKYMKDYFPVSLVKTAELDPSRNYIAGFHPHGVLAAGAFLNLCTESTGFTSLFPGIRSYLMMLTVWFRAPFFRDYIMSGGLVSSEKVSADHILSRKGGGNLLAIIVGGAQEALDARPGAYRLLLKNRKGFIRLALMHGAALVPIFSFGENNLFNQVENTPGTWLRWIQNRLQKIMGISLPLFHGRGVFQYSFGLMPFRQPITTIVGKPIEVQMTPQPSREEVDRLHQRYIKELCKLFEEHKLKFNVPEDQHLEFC
T2 sequence (Q3SYC2 whole entry): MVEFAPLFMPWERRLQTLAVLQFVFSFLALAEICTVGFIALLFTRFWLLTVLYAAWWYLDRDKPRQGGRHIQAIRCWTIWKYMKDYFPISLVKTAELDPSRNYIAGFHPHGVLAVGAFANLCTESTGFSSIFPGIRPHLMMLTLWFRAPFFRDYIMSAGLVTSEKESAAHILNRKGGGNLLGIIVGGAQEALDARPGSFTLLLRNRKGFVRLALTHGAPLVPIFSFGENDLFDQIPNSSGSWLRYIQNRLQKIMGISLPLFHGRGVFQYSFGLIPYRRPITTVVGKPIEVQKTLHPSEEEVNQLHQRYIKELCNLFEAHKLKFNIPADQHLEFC

By IC50 is commonly meant the concentration needed to halve the response being measured. As for `Cn1nc(C(F)(F)F)cc1-c1cnc(N2CCc3cc(S(=O)(=O)Nc4c(F)cc(Cl)cc4F)cc(N4CCCC4=O)c32)nc1` [compA, compound A], the half-inhibitory concentration (IC50) in test [1] was found to be 2.4 nM; in test [2], 7.8 nM.
